US7217730B2, “Method for the use of pyranoindole derivatives to treat infection with Hepatitis C virus” (Wyeth, priority 2002, dated 2007)

Target: T1, NS5B from the BK strain (genotype 1b) (Hepatitis C virus genotype 1b, UniProt P26663)
T1 construct: NS5B from the BK strain (genotype 1b) is expressed in E. coli as a protein in which the 21 C-terminal amino acids are replaced; made in house; host or cells: E. coli
Test: Hepatitis C polymerase inhibition, NS5B BK strain, 33P-GTP filter assay
Assay type: biochemical
Settings: Table 1A; for inhibition at 20 µM: 20 μM compound, read-out: HCV pol % inh at 20 μM; for IC50: NS5B BK strain, read-out: HCV pol BK IC50
Summary of the method: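 E. coli-expressed NS5B (BK, genotype 1b) with the 21 C-terminal residues replaced by a linker-His6 tag was preincubated with compound for 15 min at room temperature. It then extended a hairpin-primed heteropolymeric RNA (~3 nM, ~760 nt product) with α-[33P]-GTP for 2 h at 22–25° C. The reaction was stopped with EDTA, and incorporated label was counted on filters.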

T1 sequence (P26663 2420-2989): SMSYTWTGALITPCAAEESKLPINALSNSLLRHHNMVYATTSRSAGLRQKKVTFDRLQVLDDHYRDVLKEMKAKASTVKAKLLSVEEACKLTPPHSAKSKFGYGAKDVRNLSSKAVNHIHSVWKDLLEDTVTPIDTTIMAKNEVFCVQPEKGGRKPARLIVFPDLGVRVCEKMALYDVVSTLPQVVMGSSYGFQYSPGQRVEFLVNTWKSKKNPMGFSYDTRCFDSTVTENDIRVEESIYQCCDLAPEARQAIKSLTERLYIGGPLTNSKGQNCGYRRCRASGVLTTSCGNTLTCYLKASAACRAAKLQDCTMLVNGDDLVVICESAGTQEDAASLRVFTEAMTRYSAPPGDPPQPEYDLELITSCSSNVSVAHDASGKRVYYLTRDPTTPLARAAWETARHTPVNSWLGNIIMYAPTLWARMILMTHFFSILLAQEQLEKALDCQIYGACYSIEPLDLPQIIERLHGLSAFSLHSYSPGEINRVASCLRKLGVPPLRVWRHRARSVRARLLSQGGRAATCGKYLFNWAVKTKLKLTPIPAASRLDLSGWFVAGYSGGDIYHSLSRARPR

| SMILES | inhibition at 20 µM [%] | IC50 [µM] |
| --- | --- | --- |
| CC(C)C1(CC(=O)O)OCCc2c1[nH]c1c(F)ccc(F)c21 (stereo not drawn) [Example 125, (5,8-difluoro-1-isopropyl-1,3,4,9-tetrahydropyrano[3,4-b]indol-1-yl)acetic acid] | 73 | > 20 |
| CCCCC1(CC(=O)O)OCCc2c1[nH]c1c(F)ccc(F)c21 (stereo not drawn) [Example 126, (1-butyl-5,8-difluoro-1,3,4,9-tetrahydropyrano[3,4-b]indol-1-yl)acetic acid] | 35 | > 20 |
| C/C=C/CCC1(CC(=O)O)OCCc2c1[nH]c1c(F)ccc(F)c21 (stereo not drawn) [Example 127, {5,8-difluoro-1-[(3E)-pent-3-enyl]-1,3,4,9-tetrahydropyrano[3,4-b]indol-1-yl}acetic acid] | 24 | > 20 |
| O=C(O)CC1(c2ccc(C(=O)O)cc2)OCCc2c1[nH]c1c(F)ccc(F)c21 (stereo not drawn) [Example 128, 4-[1-(carboxymethyl)-5,8-difluoro-1,3,4,9-tetrahydropyrano[3,4-b]indol-1-yl]benzoic acid] | 70 | > 20 |
| CC1(CC(=O)O)OCCc2c1[nH]c1c(Cl)ccc(C(F)(F)F)c21 (stereo not drawn) [Example 129, [8-chloro-1-methyl-5-(trifluoromethyl)-1,3,4,9-tetrahydropyrano[3,4-b]indol-1-yl]acetic acid] | 45 | > 20 |
| CCC1(CC(=O)O)OCCc2c1[nH]c1c(Cl)ccc(C(F)(F)F)c21 (stereo not drawn) [Example 130, [8-chloro-1-ethyl-5-(trifluoromethyl)-1,3,4,9-tetrahydropyrano[3,4-b]indol-1-yl]acetic acid] | 77 | 5.5 |
| CCCC1(CC(=O)O)OCCc2c1[nH]c1c(Cl)ccc(C(F)(F)F)c21 (stereo not drawn) [Example 131, [8-chloro-1-propyl-5-(trifluoromethyl)-1,3,4,9-tetrahydropyrano[3,4-b]indol-1-yl]acetic acid] | 93 | 0.32 |
| CC(C)C1(CC(=O)O)OCCc2c1[nH]c1c(Cl)ccc(C(F)(F)F)c21 (stereo not drawn) [Example 132, [8-chloro-1-isopropyl-5-(trifluoromethyl)-1,3,4,9-tetrahydropyrano[3,4-b]indol-1-yl]acetic acid] | 78 | 9.5 |
| CCCCC1(CC(=O)O)OCCc2c1[nH]c1c(Cl)ccc(C(F)(F)F)c21 (stereo not drawn) [Example 133, [1-butyl-8-chloro-5-(trifluoromethyl)-1,3,4,9-tetrahydropyrano[3,4-b]indol-1-yl]acetic acid] | 88 | 0.7 |
| C/C=C/CCC1(CC(=O)O)OCCc2c1[nH]c1c(Cl)ccc(C(F)(F)F)c21 (stereo not drawn) [Example 134, [8-chloro-1-[(3E)-pent-3-enyl]-5-(trifluoromethyl)-1,3,4,9-tetrahydropyrano[3,4-b]indol-1-yl]acetic acid] | 28 | > 20 |
| O=C(O)CC1(c2ccccc2)OCCc2c1[nH]c1c(Cl)ccc(C(F)(F)F)c21 (stereo not drawn) [Example 135, [8-chloro-1-phenyl-5-(trifluoromethyl)-1,3,4,9-tetrahydropyrano[3,4-b]indol-1-yl]acetic acid] | 55 | > 20 |
| O=C(O)CC1(c2ccoc2)OCCc2c1[nH]c1c(Cl)ccc(C(F)(F)F)c21 (stereo not drawn) [Example 136, [8-chloro-1-(3-furyl)-5-(trifluoromethyl)-1,3,4,9-tetrahydropyrano[3,4-b]indol-1-yl]acetic acid] | 81 | 4.3 |
| Cc1ccc(C)c2c3c([nH]c12)C(C)(CC(=O)O)OCC3 (stereo not drawn) [Example 137, (1,5,8-trimethyl-1,3,4,9-tetrahydropyrano[3,4-b]indol-1-yl)acetic acid] | 5 | > 20 |
| CCC1(CC(=O)O)OCCc2c1[nH]c1c(C)ccc(C)c21 (stereo not drawn) [Example 138, (1-ethyl-5,8-dimethyl-1,3,4,9-tetrahydropyrano[3,4-b]indol-1-yl)acetic acid] | 38 | > 20 |
| CCCC1(CC(=O)O)OCCc2c1[nH]c1c(C)ccc(C)c21 (stereo not drawn) [Example 139, (5,8-dimethyl-1-propyl-1,3,4,9-tetrahydropyrano[3,4-b]indol-1-yl)acetic acid] | 40 | 8.3 |
| Cc1ccc(F)c2c3c([nH]c12)C(C)(CC(=O)O)OCC3 (stereo not drawn) [Example 140, (5-fluoro-1,8-dimethyl-1,3,4,9-tetrahydropyrano[3,4-b]indol-1-yl)acetic acid] | 28 | > 20 |
| CCCC1(CC(=O)O)OCCc2c1[nH]c1c(C)ccc(F)c21 (stereo not drawn) [Example 141, (5-fluoro-8-methyl-1-propyl-1,3,4,9-tetrahydropyrano[3,4-b]indol-1-yl)acetic acid] | 79 | 1.4 |
| CCC1(CC(=O)O)OCCc2c1[nH]c1c(C)ccc(F)c21 (stereo not drawn) [Example 142, (1-ethyl-5-fluoro-1,3,4,9-tetrahydro-8-methyl-pyrano[3,4-b]indol-1-yl)acetic acid] | 39 | 19.8 |
| Cc1ccc(F)c2c3c([nH]c12)C(CC(=O)O)(C(C)C)OCC3 (stereo not drawn) [Example 143, (5-fluoro-1-isopropyl-8-methyl-1,3,4,9-tetrahydropyrano[3,4-b]indol-1-yl)acetic acid] | 56 | 16.5 |
| CCCCC1(CC(=O)O)OCCc2c1[nH]c1c(C)ccc(F)c21 (stereo not drawn) [Example 144, (1-butyl-5-fluoro-8-methyl-1,3,4,9-tetrahydropyrano[3,4-b]indol-1-yl)acetic acid] | 73 | 6 |
| C/C=C/CCC1(CC(=O)O)OCCc2c1[nH]c1c(C)ccc(F)c21 (stereo not drawn) [Example 145, {5-fluoro-8-methyl-1-[(3E)-pent-3-enyl]-1,3,4,9-tetrahydropyrano[3,4-b]indol-1-yl}acetic acid] | 20 | > 20 |
| Cc1ccc(F)c2c3c([nH]c12)C(CC(=O)O)(c1ccccc1)OCC3 (stereo not drawn) [Example 146, (5-fluoro-8-methyl-1-phenyl-1,3,4,9-tetrahydropyrano[3,4-b]indol-1-yl)acetic acid] | 45 | > 20 |
| CCCC1(CC(=O)O)OCCc2c1[nH]c1c(F)ccc(-c3ccccc3)c21 (stereo not drawn) [Example 147, (8-fluoro-5-phenyl-1-propyl-1,3,4,9-tetrahydropyrano[3,4-b]indol-1-yl)acetic acid] | 34 |  |
| CCCC1(CC(=O)O)OCCc2c1[nH]c1c(F)ccc(-c3ccc(C)cc3)c21 (stereo not drawn) [Example 148, [8-fluoro-5-(4-methylphenyl)-1-propyl-1,3,4,9-tetrahydropyrano[3,4-b]indol-1-yl]acetic acid] | 47 | > 20 |
| CCCC1(CC(=O)O)OCCc2c1[nH]c1c(F)ccc(-c3ccc(OC)cc3)c21 (stereo not drawn) [Example 149, [8-fluoro-5-(4-methoxyphenyl)-1-propyl-1,3,4,9-tetrahydropyrano[3,4-b]indol-1-yl]acetic acid] | < 11 | 16 |
| CCCC1(CC(=O)O)OCCc2c1[nH]c1c(F)ccc(-c3ccc(C(F)(F)F)cc3)c21 (stereo not drawn) [Example 150, {8-fluoro-1-propyl-5-[4-(trifluoromethyl)phenyl]-1,3,4,9-tetrahydropyrano[3,4-b]indol-1-yl}acetic acid] | < 37 | 9 |
